The values below come from patent US20260055051A1, “Compound with anti-tumor activity, preparation method therefor, and use thereof” (Ocean University of China, priority 2022, published 2026).

In data set [1] the test system is A549 cells. Description: A549 cell-BALB/c nude mouse subcutaneous tumor transplantation experiment. The format is in vivo, BALB/c nude mice. To be noted: A549 model, test compound 0.5 mg/mL at 10 mL/kg tail vein, 15 times, 6 times; for average tumor volume at the end of the experiment: 5 times a week, 5-fu 20 mg/kg twice a week; for inhibitory effect (inhibition rate of average tumor weight, FIG. 6): 5-fu 20 mg/kg. As for the experimental part:
(§1) BALB/c nude mice were subcutaneously inoculated with A549, HCT116 and HT-29 cells to establish tumor transplantation models. • Solvent Control Group: 2% DMSO+normal saline+sodium carbonate (the molar ratio of the compound to sodium carbonate is 1:2) • 5-fluorouracil control group: 5-fluorouracil injection (20 mg/kg);
(§2) Test compound group: 1 mg of a test compound was fully dissolved in […] DMSO, and then diluted with normal saline to 0.5 mg/mL. 2 mL was used each time, freshly prepared before use on the same day.
(§3) Eight mice were in each group.
(§4) The solvent control group and the test compound group were administered at a dose of 10 mL/kg via tail vein injection (the dose for each administration was calculated based on the body weight on that day), 5 times a week, for a total of 15 times. The animals were euthanized after the last administration.
(§5) The 5-fluorouracil control group was administered twice a week for a total of 6 times.
(§6) The body weight and tumor diameter were measured twice a week during the administration period. Tumors and the spleen were removed and weighed after euthanasia. The tumor volume, relative tumor volume (RTV), relative tumor growth rate (T/C %), tumor volume inhibition rate (IRTV%), and tumor weight inhibition rate (IRTW%) were calculated. Data for animals that died accidentally were only listed but excluded from statistical analysis.

Data set [2] relates to HCT116 cells. Description: HCT116 cell-BALB/c nude mouse subcutaneous tumor transplantation experiment. It is filed as in vivo, BALB/c nude mice. To be noted: HCT116 model, test compound 0.5 mg/mL at 10 mL/kg tail vein, 15 times, 6 times; for average tumor volume at the end of the experiment: 5 times a week, 5-fu 20 mg/kg twice a week; for inhibitory effect (inhibition rate of average tumor weight, FIG. 6): 5-fu 20 mg/kg. The procedure:
as §1, §2, §3, §4, §5, §6

The test system of data set [3] is HT-29 cells. Description: HT-29 cell-BALB/c nude mouse subcutaneous tumor transplantation experiment. The format is in vivo, BALB/c nude mice. As to conditions: HT-29 model, test compound 0.5 mg/mL at 10 mL/kg tail vein, 15 times, 6 times; for average tumor volume at the end of the experiment: 5 times a week, 5-fu 20 mg/kg twice a week; for inhibitory effect (inhibition rate of average tumor weight, FIG. 6): 5-fu 20 mg/kg. The procedure:
as §1, §2, §3, §4, §5, §6

Data set [4] can be described thus: Body weight of tumor-transplanted mice during administration. The format is in vivo. As to conditions: A549, HCT116 and HT-29 transplanted mice, during administration period. As for the experimental part:
as §1, §2, §3, §4, §5, §6

The test system of data set [5] is human lung cancer cell line A549. Description: In vitro tumor cell proliferation inhibition assay (SRB method), A549. The format is cell-based. To be noted: 72 hours, SRB; for IC50: mean of triplicate experiments, read-out: IC50 against A549; for inhibition at 10 µM: test compounds 10 μM, read-out: Inhibition rate on A549. The procedure:
(§7) Sulforhodamine B Colorimetric Method (SRB Method) and MTT Colorimetric Method (MTT Method)
(§8) Human lung cancer cell line A549, human liver cancer cell line HepG2, human colon cancer cell line HCT116, human colon cancer cell line HT-29, human leukemia cell line K562, human cervical cancer cell line hela, and human breast cancer cell line MCF-7, all provided by the Shanghai Cell Bank, Chinese Academy of Sciences.
(§9) A549, HepG2, HCT116, HT-29, K562, hela, and MCF-7 cells were cultured respectively in 1640, DMEM, 5A, 5A, 1640, DMEM, and 1640 culture media containing 10 wt % heat-inactivated FBS (fetal bovine serum), 2 mM L-glutamine, 100 U/mL penicillin and […] streptomycin, in a cell incubator at 37° C. and 5 vol % CO2. The medium was replaced every two days. After the A549, HepG2, HCT116, HT-29, hela, and MCF-7 cells were confluent, they were digested with 0.05% (w/v) trypsin-EDTA at 37° C., passaged, and maintained in the logarithmic growth phase suitable for testing. The K562 suspension cells were passaged without digestion, and maintained in the logarithmic growth phase suitable for testing. The A549, HepG2, HCT116, HT-29, K562, hela, and MCF-7 cells in the logarithmic growth phase were inoculated to 96-well plates at 5000, 5000, 5000, 5000, 6000, 5000, 5000 per well, respectively, and cultured at 37° C. for 24 h.
(§10) Then various concentrations of test samples were added. The positive control group was doxorubicin hydrochloride (final concentration was 1 μM), the solvent control group was an equal volume of DMSO, and the blank control group was an equal volume of a culture medium, with 4 replicate wells for each concentration. After the A549, HepG2, HCT116, HT-29, hela, and MCF-7 cells were treated with the test drugs for 72 hours, the cells in each well were fixed with 50% (m/v) cold trichloroacetic acid (TCA) and stained with SRB. Then […] of Tris solution was added, and the OD value at the wavelength of 540 nm was measured using a microplate reader. For K562 cells, after 72 hours of treatment with the test drugs, […] of 5 mg/mL MTT was added, and the cells were incubated at 37° C. for 4 hours. Next, […] of a triplet solution (10% SDS, 5% isobutanol, 12 mM HCl) was added, followed by further incubation for 12 to 20 hours. The OD value at the wavelength of 570 nm was measured using a microplate reader.
(§11) The tumor cell growth inhibition rate was calculated according to the following equation: […]
(§12) in the equation, • OD540 control well is the absorbance of the control group; • OD540 dosing well is the absorbance of the test group.
(§13) IC50 values of the test drugs (calculated by GraphPad Prism 5 software) were the means of the results of triplicate experiments.
On the technique in general: The SRB assay estimates cell density from bound dye.

Data set [6] deals with human liver cancer cell line HepG2. Description: In vitro tumor cell proliferation inhibition assay (SRB method), HepG2. As to conditions: 72 hours, SRB; for IC50: mean of triplicate experiments, read-out: IC50 against HepG2; for inhibition at 10 µM: test compounds 10 μM, read-out: Inhibition rate on HepG2. The format is cell-based. The procedure:
as §7, §8, §9, §10, §11, §12, §13

For data set [7], the system named is human colon cancer cell line HCT116. Description: In vitro tumor cell proliferation inhibition assay (SRB method), HCT116. The format is cell-based. To be noted: SRB; for IC50: HCT-116, 72 hours, mean of triplicate experiments, read-out: IC50 against HCT116; for inhibition at 10 µM: HCT-116, test compounds 10 μM, 72 hours, read-out: Inhibition rate on HCT116. The procedure: as §7, §8, §9, §10, §11, §12, §13

The test system of data set [8] is human colon cancer cell line HT-29. Description: In vitro tumor cell proliferation inhibition assay (SRB method), HT-29. It is filed as cell-based. As to conditions: 72 hours, SRB, mean of triplicate experiments, read-out: IC50 against HT-29. As for the experimental part: as §7, §8, §9, §10, §11, §12, §13
The test system of data set [9] is human leukemia cell line K562. Description: In vitro tumor cell proliferation inhibition assay (MTT method), K562. It is filed as cell-based. As to conditions: 72 hours, mean of triplicate experiments, read-out: IC50 against K562. The procedure: as §7, §8, §9, §10, §11, §12, §13
On the technique in general: Tetrazolium dyes change colour on reduction, which living cells bring about.

The subject of data set [10] is human cervical cancer cell line hela. Description: In vitro tumor cell proliferation inhibition assay (SRB method), hela. The format is cell-based. As to conditions: 72 hours, SRB, mean of triplicate experiments, read-out: IC50 against hela. The procedure:
as §7, §8, §9, §10, §11, §12, §13

Data set [11] relates to human breast cancer cell line MCF-7. Description: In vitro tumor cell proliferation inhibition assay (SRB method), MCF-7. As to conditions: MCF7, 72 hours, SRB, mean of triplicate experiments, read-out: IC50 against MCF-7. It is filed as cell-based. As for the experimental part: as §7, §8, §9, §10, §11, §12, §13
For data set [12], the system named is A549, HepG2, HCT116, HT-29, K562, hela, and MCF-7 cell lines. Description: In vitro tumor cell proliferation inhibition assay, summary over all 7 types of cells. To be noted: Homo sapiens, upper bound over A549, HepG2, HCT116, HT-29, K562, hela, MCF-7. It is filed as cell-based. The procedure: as §7, §8, §9, §10, §11, §12, §13

For the compound `O=c1[nH]cc(F)c(=O)[nH]1` [Compound 5-fu, 5-fluorouracil, reference compound], the “average tumor volume at the end of the experiment” value (from here on “average tumor volume at the end”) in data set [1] came to 322.03 mm^3; in [2], 599.83 mm^3; in data set [3] it was 658.02 mm^3. Also, the “inhibitory effect (inhibition rate of average tumor weight, FIG. 6)” value (from here on “inhibitory effect”) was 43.11% in data set [1], 44.81% in data set [2] and 44.60% in data set [3]. In [4], the “body weight compared to the solvent control (FIG. 2)” value is recorded as “significant weight loss”.
As to `C=CC(=O)NCc1c(O)c(O)c(O)c(CNC(=O)C=C)c1C(=O)O` [Compound I-1, N-(2,3,4-trihydroxy-5-acrylamidomethyl-6-carboxybenzyl) acrylamide], the half-maximal inhibitory concentration (IC50) was 2.73 µM in data set [5]; 8.31 µM in data set [6]; 4.77 µM in data set [7]; 16.6 µM in [8]; greater than 50 µM in [9]; 23.8 µM in [10]. In addition, the half-maximal inhibitory concentration (IC50) in [11] was 4.6 µM. Also, the inhibition at 10 µM is 89.3% in data set [5], 57.5% in data set [6] and 92.3% in [7]. The “average tumor volume at the end” value in data set [1] is given as 539.48 mm^3. Moreover, the “inhibitory effect” value in data set [1] is 33.25%; in [2] it was 35.13%.
`COc1c(CNC(=O)CCl)c(C)cc(C)c1CNC(=O)CCl` [Compound I-4, N-(2-methoxy-3-chloroacetamidomethyl-4,6-dimethylbenzyl) chloroacetamide]: the IC50 was determined as 6.57 µM in [5]; 7.9 µM in data set [6]; 3.96 µM in [7]; 17.6 µM in [8]; 9.36 µM in data set [9]; 9.38 µM in data set [10]. For the same compound, the IC50 in data set [11] was 5.75 µM; in [12], less than 35.5 µM. Moreover, the inhibition at 10 µM was 69% in data set [5], 82.9% in [6] and 69.3% in data set [7]. In addition, the “inhibitory effect” value in data set [1] is reported as 22.05%; in data set [2], 29.86%; in data set [3], 23.90%. Further, the “average tumor volume at the end” value in data set [2] is recorded as 574.36 mm^3.
With `CC(=O)NCc1c(C)cc(O)c(C)c1C` [Compound I-6, N-(2,3,6-trimethyl-4-hydroxybenzyl) acetamide], the IC50 in data set [5] amounted to 5.95 µM; in data set [6], 8.36 µM; in data set [7] it was 7.36 µM; in data set [8], 35.4 µM; in data set [9], 9.74 µM; in data set [10], 8.86 µM. Besides, the figures for the IC50 in data set [11] and in [12] were 6.98 µM and less than 35.5 µM, respectively. Further, the inhibition at 10 µM in [5] came out at 94.9%; in data set [6] it was 81.1%; in data set [7], 96.6%. Moreover, the results for the “average tumor volume at the end” value in data set [1] and in data set [3] were 492.12 mm^3 and 559.37 mm^3, respectively. The “inhibitory effect” value in [1] came out at 35.19%; in data set [3], 32.07%.
On to `Cc1cc(O)c(CNC(=O)CCl)c(C)c1Cl` [Compound I-7, N-(2,4-dimethyl-3-chloro-6-hydroxybenzyl) chloroacetamide], for which the half-maximal inhibitory concentration (IC50) in [5] was determined as 8.11 µM; in data set [6] it was 8.61 µM; in data set [7], 7.44 µM; in data set [8], 28.9 µM; in data set [9], 12.7 µM; in [10], 9.68 µM. Further, the half-inhibitory concentration (IC50) in [11] was 5.75 µM; in [12], less than 35.5 µM. In addition, the inhibition at 10 µM was determined as 55% in data set [5], 95.8% in data set [6] and 95.1% in data set [7]. The figures for the “average tumor volume at the end” value in data set [1] and in [2] were 559.37 mm^3 and 624.48 mm^3, respectively. Also, the “inhibitory effect” value in data set [1] amounted to 33.56%; in data set [3], 26.52%.

As a reminder, the IC50 is the concentration needed to halve the response being measured. What is called inhibition is the share of the control response that was lost under treatment.
